Source: PMC7136958, “Targeting the pregnane X receptor using microbial metabolite mimicry” (EMBO Molecular Medicine, 2020)
“And” between values parts separate entries of the source, which are not always exact repeats. Identical values can stand only once. Like-named read-outs stand apart in the source and are kept apart here.

What was measured:
NF-κB = test: TNF-α-induced NF-κB reporter assay in LS174T PXR-KO cells; conditions: LS174T PXR-KO, EXP3; 10 μM + TNFα 5 ng/ml; TNFa 5 ng/ml = 100; listed as RIF
Description: In early passage PXR‐KO cells, we used PXR and NF‐κB reporter‐co‐transfected and NF‐κB reporter‐transfected PXR‐KO cell line.
CRISPR/Cas9‐mediated knockout cells were generated by Synthego Corporation (Redwood City, CA, USA). Briefly, cells were first tested negative for mycoplasma. Guide RNA was selected for high activity, specificity, and activity to create premature stop codons through frameshift mutations in the coding region via insertions and/or deletions (Indels) within exon 2 of the gene encoding human PXR (NR1I2 transcript ID ENST00000337940). […] To generate these cells, ribonucleoproteins (RNPs) containing the Cas9 protein and synthetic chemically modified sgRNA (Synthego) were electroporated into the cells using Synthego's optimized protocol. Editing efficiency is assessed upon recovery, 48 h post‐electroporation. Genomic DNA is extracted from a portion of the cells, PCR‐amplified, and sequenced using Sanger sequencing. The resulting chromatograms are processed using Synthego Inference of CRISPR Edits software (ice.synthego.com).

hPXR-LBD (PXR.1) = biological target: T1, hPXR-LBD (PXR.1) (Homo sapiens, UniProt O75469); test: Isothermal titration calorimetry with His-tagged hPXR-LBD; assay type: binding
T1 construct: made in house; host or cells: E. coli BL21-Gold
T1 sequence (O75469 146-433 limits assumed): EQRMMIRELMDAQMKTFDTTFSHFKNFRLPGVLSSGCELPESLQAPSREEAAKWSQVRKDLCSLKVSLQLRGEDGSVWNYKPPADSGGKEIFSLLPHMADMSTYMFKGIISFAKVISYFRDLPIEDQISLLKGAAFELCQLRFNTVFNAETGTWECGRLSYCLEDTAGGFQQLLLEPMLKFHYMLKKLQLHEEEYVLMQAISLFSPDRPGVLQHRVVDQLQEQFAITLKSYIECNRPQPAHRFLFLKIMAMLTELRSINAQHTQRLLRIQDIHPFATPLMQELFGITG
Protocol: The cloning, expression, and purification of His‐tagged PXR‐LBD were performed as previously published (Wallace et al, 2013) with the following modifications: For protein expression, Luria–Bertani (LB) media were inoculated with a saturated culture of BL21‐Gold cells transformed with HIS‐LIC plasmid containing the PXR‐LBD construct. The mixture was allowed to shake at 37°C until the cells reached an OD600 ~ 0.6, and then, the temperature was reduced to 18°C, at which time IPTG was added (final concentration of 0.1 mM) to induce protein expression. For purification, the His‐tag was not removed, and the uncleaved protein was loaded onto the gel filtration column with buffer containing HEPES (4‐(2‐hydroxyethyl)‐1‐piperazineethanesulfonic acid) (25 mM, pH 7.5) and NaCl (150 mM).
Isothermal titration calorimetry (ITC) was carried out using a VP‐ITC microcalorimeter from MicroCal⁄Malvern Instruments (Northampton, MA, USA). […] In all the experiments, the ligand solution was injected in 10 μl aliquots into the calorimetric cell containing PXR‐LBD (ligand‐binding domain) at a concentration of 3–6 μM. […] The experiments were carried out at 37°C. The heat evolved upon each injection of the ligands was obtained from the integral of the calorimetric signal. The heat associated with binding to PXR‐LBD in the cell was obtained by subtracting the heat of dilution from the heat of reaction.

AhR = biological target: T2, AhR (Homo sapiens, UniProt P35869); test: AhR reporter assay, HepG2 cells stably expressing pCYP1A1 luciferase (AZ-AHR); assay type: cell-based; conditions: human; AZ-AHR cells, positive control, fold vs UT, concentration not given
T2 construct: endogenous in cells; host or cells: AZ-AHR (HepG2)
T2 sequence (P35869 11-848): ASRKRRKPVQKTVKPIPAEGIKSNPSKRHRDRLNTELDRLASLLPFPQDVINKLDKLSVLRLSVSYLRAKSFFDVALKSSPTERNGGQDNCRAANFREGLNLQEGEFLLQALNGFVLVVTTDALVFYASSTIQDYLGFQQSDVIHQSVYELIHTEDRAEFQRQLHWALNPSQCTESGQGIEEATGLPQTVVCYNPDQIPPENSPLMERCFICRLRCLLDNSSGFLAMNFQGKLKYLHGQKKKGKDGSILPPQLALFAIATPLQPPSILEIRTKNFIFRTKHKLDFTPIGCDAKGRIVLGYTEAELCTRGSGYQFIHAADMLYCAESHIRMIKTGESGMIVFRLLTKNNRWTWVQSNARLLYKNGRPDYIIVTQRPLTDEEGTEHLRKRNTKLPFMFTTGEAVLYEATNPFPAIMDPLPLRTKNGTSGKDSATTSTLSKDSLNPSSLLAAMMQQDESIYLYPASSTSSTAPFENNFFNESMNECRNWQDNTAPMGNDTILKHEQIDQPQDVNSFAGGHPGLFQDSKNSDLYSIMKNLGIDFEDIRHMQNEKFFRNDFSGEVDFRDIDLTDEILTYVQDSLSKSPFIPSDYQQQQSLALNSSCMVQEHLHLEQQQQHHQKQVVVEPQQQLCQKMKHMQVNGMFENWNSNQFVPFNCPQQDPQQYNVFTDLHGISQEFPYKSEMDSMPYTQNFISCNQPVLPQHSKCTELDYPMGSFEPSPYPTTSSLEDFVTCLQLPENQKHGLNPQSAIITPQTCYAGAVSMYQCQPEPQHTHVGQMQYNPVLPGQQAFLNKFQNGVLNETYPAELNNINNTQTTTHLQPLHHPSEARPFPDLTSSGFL
Protocol: Incubations were performed in four technical replicates.

[1] = tested on: CYP1A1, CYP3A4, MDR1 mRNA in HepaRG cells; conditions: for 1A1 mRNA fold to C: normalised to GAPDH, fold vs UT
Protocol: Caco‐2 cells were purchased from ATCC, and authenticity was validated by multiplexed STR DNA (short tandem repeat deoxyribonucleic acid) profiling performed by Genetica. […] Cells were maintained at 37°C and 5% CO2 in a humidified incubator. […] Three HepaRG™‐derived cell lines, including 5F Clone control cells, and cells with targeted functional PXR and AhR gene knockouts, PXR‐KO and AhR‐KO, respectively, were purchased from Sigma (Czech Republic). Cells were handled according to the manufacturer's protocol. Human hepatocytes were purchased from Biopredic International (France) and Triangle Research Labs, LLC, Lonza (USA). Cultures were maintained in serum‐free medium at 37°C and 5% CO2 in a humidified incubator.
The measurements were performed in triplicate.

[2] = tested on: CYP1A1, CYP3A4, MDR1 mRNA in primary human hepatocytes; test: qRT-PCR of CYP1A1, CYP3A4, MDR1 mRNA in primary human hepatocytes (four donors); conditions: for CYP1A1 (1A1) mRNA, fold to C: primary human hepatocytes, fold vs untreated (UT)
Protocol: (§1) Cells or primary human hepatocytes from four different donors (HEP200529, HEP220932, HEP200533, and HEP200538) were incubated for 24 h with test compounds; the vehicle was DMSO (0.1% v/v). Total RNA was isolated using TRI Reagent® (Molecular Research Center, Ohio, USA). cDNA was synthesized from 1,000 ng of total RNA using M‐MuLV Reverse Transcriptase (New England Biolabs, Ipswich, Massachusetts, USA) at 42°C for 60 min in the presence of random hexamers (New England Biolabs). Quantitative reverse transcriptase–polymerase chain reaction (qRT–PCR) was performed using LightCycler® 480 Probes Master on a LightCycler® 480 II apparatus (Roche Diagnostic Corporation).
(§2) The following protocol was used: An activation step at 95°C for 10 min was followed by 45 cycles of PCR (denaturation at 95°C for 10 s; annealing with elongation at 60°C for 30 s). The measurements were performed in triplicate. Gene expression was normalized per GAPDH as a housekeeping gene. […] Data are expressed as fold induction ± SD over the vehicle‐treated cells. The bar graph depicts one representative experiment of a series of experiments performed in three consecutive passages of cells. Differences were tested using one‐way ANOVA with Dunnett's post hoc test, and P < 0.05 was considered significant.

[3] = tested on: CYP1A1, CYP3A4, MDR1 mRNA in LS180 cells; test: qRT-PCR of CYP1A1, CYP3A4, MDR1 mRNA in LS180 cells with or without (mock) transfected PXR; conditions: normalised to GAPDH, fold to UT control
Protocol: as §1, §2

CO[C@H]1/C=C/O[C@@]2(C)Oc3c(C)c(O)c4c(O)c(c(/C=N/N5CCN(C)CC5)c(O)c4c3C2=O)NC(=O)/C(C)=C\C=C\[C@H](C)[C@H](O)[C@@H](C)[C@@H](O)[C@@H](C)[C@H](OC(C)=O)[C@@H]1C [Rifampicin, reference compound]
NFkB %max (NF-κB): 94.8% and 94.84%

O=C(O)CCc1c[nH]c2ccccc12 [IPA, indole‐3‐propionic acid, reference compound]
thermal signature of interaction with hPXR-LBD (hPXR-LBD (PXR.1)): did not induce a thermal signature

Clc1cc2c(cc1Cl)Oc1cc(Cl)c(Cl)cc1O2 [TCDD, 2,3,7,8‐tetrachlorodibenzo‐p‐dioxin, reference compound]
fold induction at 24 h (AhR): 485 | 1A1 mRNA fold to C ([1]; HepaRG AHR-KO): 1.24 fold | 1A1 mRNA fold to C ([1]; HepaRG CONTROL 5F Clone): 151.69 fold | CYP1A1 (1A1) mRNA, fold to C ([1]; HepaRG PXR-KO cells, qRT-PCR normalised to GAPDH, fold vs untreated (UT)): 338.18 fold | CYP1A1 mRNA induction ([1]; HepaRG control 5F clone, PXR-KO, AhR-KO): induces | CYP1A1 mRNA induction ([2]; four donors): induced CYP1A1 mRNA in all cells | CYP1A1 mRNA fold to C ([2]; primary human hepatocytes donor Hep200538, normalised to GAPDH, fold to UT control): 10734.74 | CYP1A1 (1A1) mRNA, fold to C ([2]; donor Hep200529, normalised to GAPDH): 394.35 fold | CYP1A1 (1A1) mRNA, fold to C ([2]; donor Hep200533, normalised to GAPDH): 1246.21 fold | CYP1A1 (1A1) mRNA, fold to C ([2]; donor Hep220932, normalised to GAPDH): 962.07 fold | CYP1A1 mRNA fold to C ([3]; PXR-transfected LS180 cells): 1299.13 | CYP1A1 mRNA fold to C ([3]; mock-transfected LS180 cells): 2347.10
